The source of these data is PubChem BioAssay (NCI).

Several values for one entry are separate records, joined by “and”; a condition that tells them apart may be missing. Equal values may be shown once.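 Compound exposure: 48 hours, 5 concentrations, 96-well plates. At the GI50, growth is halved. TGI: concentration producing complete growth inhibition.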

Some test systems named below: SK-MEL-5 melanoma; RXF 393 renal; MALME-3M melanoma; SR leukemia; SK-MEL-2 melanoma; HCC-2998 colon; MDA-N; COLO 205 colon; DMS 114 small cell lung; KM20L2 colon; SNB-78 CNS; DLD-1 colon; M19-MEL melanoma; LXFL 529 NSCLC; DMS 273 small cell lung.
Assay in all cases: growth of human tumour cells (NCI), 48 h

Consider `CN(CCCNC(=O)c1nn(-c2ccc(Cl)cc2Cl)c2c1ccc1ccccc12)CCCNC(=O)c1nn(-c2ccc(Cl)cc2Cl)c2c1ccc1ccccc12`, for which the TGI came to 3.42 µM with SK-MEL-5 melanoma; 3.12 µM in the assay with RXF 393 renal; 3.58 µM in the assay on MALME-3M melanoma; 1.58 µM in the assay on SR leukemia; 3.09 µM in the assay on SK-MEL-2 melanoma; 2.91 µM in the assay on HCC-2998 colon. Further, the TGI in the assay on MDA-N came out at 3.18 µM; with COLO 205 colon, 3.71 µM.

Regarding `NC(CCOCCP(=O)(O)CCOCCC(N)C(=O)O)C(=O)O` (centres undefined), the TGI with SK-MEL-5 melanoma, in the assay on RXF 393 renal, in the assay with SR leukemia, in the assay on SK-MEL-2 melanoma, with HCC-2998 colon and with COLO 205 colon was above 100 µM each time.

Regarding `C=CC(C)CCC(C/C=C(\C)CCC=C(C)C)C(=C)CCCC(C)C` (centres undefined), the TGI in the assay with SK-MEL-5 melanoma, in the assay on RXF 393 renal, with MALME-3M melanoma, with SR leukemia, in the assay on SK-MEL-2 melanoma and with HCC-2998 colon was above 100 µM in each case. Besides, the TGI with MDA-N and in the assay with COLO 205 colon was above 100 µM each time.

`O=C1OCc2cccc3c2-c2c1cccc2C(=O)OC3`: the TGI in the assay on DMS 114 small cell lung, in the assay with KM20L2 colon, in the assay with SK-MEL-5 melanoma, in the assay on RXF 393 renal, in the assay on SNB-78 CNS and in the assay on DLD-1 colon was above 100 µM throughout. Moreover, the TGI in the assay on MALME-3M melanoma, in the assay with SR leukemia, in the assay on SK-MEL-2 melanoma, with M19-MEL melanoma, in the assay on HCC-2998 colon and with COLO 205 colon was above 100 µM in each case.

For the compound `CCc1c(Cc2cc(C)cc(C)c2)n2c(nc1=O)SCC2CBr` (centres undefined), the TGI with SK-MEL-5 melanoma, in the assay on RXF 393 renal, in the assay with MALME-3M melanoma, in the assay with SR leukemia, in the assay with SK-MEL-2 melanoma and in the assay on HCC-2998 colon was above 50 µM throughout. Moreover, the TGI in the assay on MDA-N and in the assay with COLO 205 colon was above 50 µM throughout.

With `C/C(=C\c1ccc(Cl)c(Cl)c1)[N+](=O)[O-]`, the GI50 was 3.05 µM in the assay on SK-MEL-5 melanoma; 1.51 µM with RXF 393 renal; 1.61 µM in the assay with MALME-3M melanoma; 2.38 µM with SR leukemia; 1.78 µM with COLO 205 colon. For the same compound, the TGI in the assay with SK-MEL-5 melanoma was 11.3 µM and 3.94 µM; with RXF 393 renal, 2.9 µM; in the assay with MALME-3M melanoma, 3.36 µM and 3.83 µM; in the assay with SR leukemia, 11.4 µM and 6.68 µM; in the assay with SK-MEL-2 melanoma, 4.05 µM and 4.03 µM; with HCC-2998 colon it was 8.25 µM. In the assay with COLO 205 colon, this compound gave a TGI of 3.27 µM.

Regarding `c1ccc(C[n+]2cccc(-c3cc4ccccc4[nH]3)c2)cc1`, the TGI in the assay with SK-MEL-5 melanoma is 23.8 µM; in the assay on RXF 393 renal, above 100 µM; in the assay with MALME-3M melanoma, 34.1 µM; with SR leukemia, above 100 µM; in the assay with SK-MEL-2 melanoma it was 32.8 µM; in the assay on MDA-N, 37.6 µM. Moreover, in the assay with COLO 205 colon, the TGI is 28.8 µM.

As for `CCCCC(=O)Oc1ccc2c(C)cc(=O)oc2c1`, the TGI with SK-MEL-5 melanoma, in the assay with RXF 393 renal, with MALME-3M melanoma, in the assay with SR leukemia, in the assay on SK-MEL-2 melanoma and with HCC-2998 colon was above 100 µM throughout. Also, the TGI in the assay on MDA-N and in the assay on COLO 205 colon was above 100 µM each time.

As for `O=C1/C(=C/c2ccco2)N=C(c2ccccc2)N1c1cc2cc(Sc3ccccc3)ccc2[nH]1`, the TGI with RXF 393 renal, in the assay with MALME-3M melanoma, in the assay with SR leukemia, in the assay on SK-MEL-2 melanoma, in the assay on MDA-N and with COLO 205 colon was above 25 µM each time.

In the case of `NC(=O)NC(=O)c1cccc(NC(=O)CBr)c1`, the TGI was below 0.0184 µM in the assay with SK-MEL-5 melanoma; 1.38 µM in the assay on RXF 393 renal; 0.746 µM in the assay with MALME-3M melanoma; 0.152 µM with SR leukemia; 1.59 µM in the assay on SK-MEL-2 melanoma; below 0.0226 µM with MDA-N. Besides, the TGI in the assay with COLO 205 colon was below 0.01 µM.

As to `COc1cccc(CC2Cc3ccccc3CC(=O)N2)c1` (centres undefined), the TGI in the assay on SK-MEL-5 melanoma was 54.6 µM; in the assay on RXF 393 renal, above 100 µM; in the assay with SR leukemia, above 100 µM; with SK-MEL-2 melanoma, above 100 µM; with HCC-2998 colon, above 100 µM; in the assay on MDA-N, above 100 µM. The compound further displayed a TGI in the assay on COLO 205 colon above 100 µM.

On to `O=C(c1ccccc1)c1sc2c(=O)c(C(=O)c3ccccc3)c(C(=O)c3ccccc3)sc2c(=O)c1C(=O)c1ccccc1`, for which the TGI in the assay with SK-MEL-5 melanoma is above 100 µM; with RXF 393 renal it was 72.3 µM; in the assay on MALME-3M melanoma, above 100 µM; with SR leukemia, above 100 µM; in the assay on SK-MEL-2 melanoma it was above 100 µM; in the assay on HCC-2998 colon it was 44 µM. The TGI in the assay on MDA-N and with COLO 205 colon was above 100 µM in each case.

On to `CC(C)NCCC(O)c1cc2ccccc2o1` (centres undefined), for which the TGI with SK-MEL-5 melanoma, in the assay on RXF 393 renal, with MALME-3M melanoma, in the assay on SK-MEL-2 melanoma, in the assay on MDA-N and with COLO 205 colon was above 100 µM in each case.

Turning to `c1ccc(-c2nnc(-c3nsc4ccccc34)o2)cc1`, the TGI with DMS 114 small cell lung, with KM20L2 colon, in the assay on SK-MEL-5 melanoma, with RXF 393 renal, with LXFL 529 NSCLC and in the assay with SNB-78 CNS was above 100 µM each time. The TGI with DMS 273 small cell lung, in the assay on SK-MEL-2 melanoma, in the assay with M19-MEL melanoma, with HCC-2998 colon and in the assay with COLO 205 colon was above 100 µM in each case.

As to `OC1CN2Cc3cc4c(cc3[C@]13C=C[C@@H](O)CC23)OCO4` (some centres undefined), the TGI in the assay with SK-MEL-5 melanoma is above 100 µM; with RXF 393 renal, 58.6 µM; in the assay with MALME-3M melanoma it was above 100 µM; in the assay with SR leukemia, above 100 µM; with SK-MEL-2 melanoma it was above 100 µM; in the assay with MDA-N, above 100 µM. The TGI with COLO 205 colon is above 100 µM.

For `NC(Cc1ccccc1)(C(=O)O)C(=O)O`, the TGI in the assay on SK-MEL-5 melanoma, with RXF 393 renal, in the assay with MALME-3M melanoma, in the assay with SK-MEL-2 melanoma, in the assay with HCC-2998 colon and with MDA-N was above 100 µM throughout. Moreover, in the assay on COLO 205 colon, the TGI was above 100 µM.

As for `COc1ccc(Cc2nccc3cc(OC)c(OC)cc23)cc1OC`, the TGI was 99.3 µM with SK-MEL-5 melanoma; above 100 µM in the assay on SR leukemia; above 100 µM in the assay with SK-MEL-2 melanoma; above 100 µM with HCC-2998 colon; above 100 µM in the assay with MDA-N; above 100 µM in the assay with COLO 205 colon.

Turning to `CCOC(=O)C1=C(C)N(NC(N)=O)C2(O)CCCC(=O)C12C` (centres undefined), the TGI in the assay on DMS 114 small cell lung, in the assay with KM20L2 colon, with SK-MEL-5 melanoma, in the assay on RXF 393 renal, in the assay on LXFL 529 NSCLC and in the assay on SNB-78 CNS was above 100 µM in each case. The TGI in the assay with DLD-1 colon, in the assay with MALME-3M melanoma, with DMS 273 small cell lung, in the assay on SK-MEL-2 melanoma, in the assay on HCC-2998 colon and in the assay on COLO 205 colon was above 100 µM in each case.

With `O=C1/C(=C/c2ccc(Cl)cc2)N=C(c2ccccc2)N1c1ccc(S(=O)(=O)Nc2nccs2)cc1`, the TGI with SK-MEL-5 melanoma was 66.6 µM; in the assay with RXF 393 renal, above 100 µM; with MALME-3M melanoma, above 100 µM; in the assay with SR leukemia, above 100 µM; with SK-MEL-2 melanoma, 47.3 µM; in the assay with HCC-2998 colon, 47.4 µM. Besides, the TGI is above 100 µM with MDA-N and 40.7 µM in the assay on COLO 205 colon.
